Results: article PMC8609367 (mBio, 2021)
Converted amounts (≈) assume the structure as drawn. “And” between values parts separate entries of the source, which are not always exact repeats. Equal entries are not always repeated.

Columns and labels:
[1] = design: method as in PMID 1380976; settings: cited from earlier work
[2] = tested on: FKBP12; design: method as in PMID 1380976; settings: cited from earlier work
[3] = design: method as in PMID 1380976; settings: cited from earlier work; remark: listed apart in the source
[4] = molecular target: T1, hFKBP12 (Homo sapiens, UniProt P62942); experiment: ITC binding to human FKBP12
T1 construct: His6 (thrombin-cleavable) (N, cleaved yes); made in house; host or cells: E. coli BL21(DE3)
T1 sequence (P62942 whole entry): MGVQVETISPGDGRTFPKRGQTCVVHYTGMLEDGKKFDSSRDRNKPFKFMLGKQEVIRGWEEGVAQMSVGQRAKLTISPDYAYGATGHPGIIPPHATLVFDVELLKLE
Method: (§1) The lower panel represents the integrated heat changes upon binding (kilocalories/mole) corrected for the protein and ligand heat of dilution. Fitting was performed using the MicroCal Origin software. Download FIG S2, TIF file, 0.9 MB.
(§2) After the size exclusion purification, the proteins were concentrated to ∼2 mg/ml using a 3,000-MWCO Amicon concentrator. Proteins were exhaustively dialyzed at 4°C in the isothermal titration calorimetry (ITC) buffer (50 mM sodium phosphate, 50 mM sodium chloride, pH 7.0). Experiments were performed using a VP-ITC instrument (MicroCal Inc., Northampton, MA) at 25°C. All solutions were degassed under vacuum at 25°C for 15 min immediately before use. […] was loaded into the syringe at a concentration of 25 μM and titrated in by a first injection of 2 μl followed by 22 injections of 6 μl. Following each injection, the cell was equilibrated for 3 min. […] The proteins were loaded in the cell at a concentration of 10 μM with constant stirring at 307 rpm (25°C). […] The enthalpy of binding (ΔH, kilocalories/mole) was determined by integration of the injection peaks minus the controls for the heat of dilution (equivalent experiments without the ligand and without the protein). The MicroCal Origin software (OriginLab Corp., Northampton, MA) was used for a variety of binding models.

[5] = molecular target: T2, AfFKBP12 (Aspergillus fumigatus, UniProt Q4WLV6); experiment: biochemical; type: binding; settings: for TΔS / ΔG° / ΔH / Stoichiometry / Kd: ITC, 25°C, average from triplicates; for Stoichiometry: ligand-FKBP12
T2 construct: His6 (thrombin-cleavable) (N, cleaved yes); made in house; host or cells: E. coli BL21(DE3)
T2 sequence (Q4WLV6 1-112): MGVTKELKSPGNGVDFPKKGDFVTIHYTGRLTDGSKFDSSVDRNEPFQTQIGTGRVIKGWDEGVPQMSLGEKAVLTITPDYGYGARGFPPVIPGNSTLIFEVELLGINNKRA
Method: as §1, §2

[6] = molecular target: T3, McFKBP12 (Mucor circinelloides, UniProt U3N5X4); experiment: ITC binding to M. circinelloides FKBP12; settings: for Kd / Stoichiometry / TΔS / ΔG° / ΔH: ITC, 25°C, average from triplicates
T3 sequence (U3N5X4 1-108): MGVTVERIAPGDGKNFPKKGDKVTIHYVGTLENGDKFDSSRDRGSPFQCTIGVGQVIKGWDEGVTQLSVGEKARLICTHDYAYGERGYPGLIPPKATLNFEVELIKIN
Method: as §1, §2

[7] = Solubility noted in ITC set-up; type: physicochemical; settings: restricting the usable concentration in ITC
Method: as §2

[8] = tested on: Cryptococcus neoformans; design: method as in PMID 31537789; settings: C. neoformans; cited from earlier work
[9] = tested on: Candida albicans; design: method as in PMID 31537789; settings: in vitro; cited from earlier work
[10] = tested on: interleukin-2 (IL-2) production in primary murine CD4+ T cells; design: method as in PMID 31537789; settings: reduction of IL-2 production in primary murine CD4+ T cells; cited from earlier work
[11] = tested on: cryptococcal model of invasive fungal infection; design: method as in PMID 31537789; settings: murine model; cited from earlier work
[12] = tested on: T helper cell-dependent germinal center B cell response; design: method as in PMID 31537789; settings: cited from earlier work
[13] = tested on: A. fumigatus strains expressing McFKBP12 or McFKBP12-Y88F; experiment: Growth assay of A. fumigatus strains expressing FKBP12 variants in presence of FK506; type: cell-based, Aspergillus fumigatus
Method: A. fumigatus wild-type strain akuB^KU80 was used for growth and recombinant strain generation experiments. A. fumigatus wild-type or recombinant strains were cultured on glucose minimal medium (GMM) or RPMI liquid medium at 37°C for 24- or 48-h- periods. […] All growth experiments were repeated as technical triplicates, each also as biological triplicates.

[14] = ITC, 25°C, average from triplicates

Row | SMILES | Stoichiometry [4, 14] | TΔS [4, 14] [kcal/mol] | ΔG° [4, 14] [kcal/mol] | ΔH [4, 14] [kcal/mol] | TΔS [5] [kcal/mol] | ΔG° [5] [kcal/mol] | ΔH [5] [kcal/mol] | Stoichiometry [5] | Kd [5] [nM] | Kd [6] | Stoichiometry [6] | TΔS [6] [kcal/mol] | ΔG° [6] [kcal/mol] | ΔH [6] [kcal/mol] | further results
1 | CC[C@@H]1/C=C(\C)[C@@H](O)[C@H](C)C[C@H](OC)[C@H]2O[C@@](O)(C(=O)C(=O)N3CCCC[C@H]3C(=O)O[C@H](/C(C)=C/[C@@H]3CC[C@@H](O)[C@H](OC)C3)[C@H](C)[C@@H](O)CC1=O)[C@H](C)C[C@@H]2OC [L-685,818] |  |  |  |  |  |  |  |  |  |  |  |  |  |  | Immunosuppressive activity [1]: nonimmunosuppressive; Binding to FKBP12 [2]: still binds to FKBP12; Antifungal activity [3]: retains antifungal activity
2 | C=CCC1C=C(C)CC(C)CC(OC)C2OC(O)(C(=O)C(=O)N3CCCCC3C(=O)OC(C(C)=CC3CCC(O)C(OC)C3)C(C)C(O)CC1=NNC(C)=O)C(C)CC2OC (stereo not drawn) [APX879] | 1.41 ± 0.03 | 7.4 ± 0.8 | -9.2 ± 0.9 | -1.8 ± 0.4 | 7.2 ± 1.0 | -8.0 ± 1.0 | -1.2 ± 0.4 | 1.96 ± 0.13 | 462 | ~120 nM and 126 nM | 0.93 ± 0.17 | 7.4 ± 0.2 | -9.4 ± 0.2 | -2.0 ± 0.1 | Reduction in affinity compared to FK506 ([4]; ITC KD, APX879 versus FK506): ~40 fold; Kd [4, 14]: ~120 nM and 119 nM; Reduction in affinity compared to FK506 ([5]; ITC KD, APX879 versus FK506): 100 fold; Reduction in affinity compared to FK506 ([6]; ITC KD, APX879 versus FK506): ~40 fold; Solubility [7]: low solubility; Reduction in antifungal efficacy compared to FK506 [8]: 17 fold; MIC [9]: 8 µg/mL (≈ 9.3 µM); Reduced immunosuppressive activity compared to FK506 [10]: 71 fold; Efficacy in cryptococcal model [11]: confirmed efficacy; Ability to stimulate T helper cell-dependent germinal center B cell response ([12]; in comparison to FK506 treatment, animal models): significant reduction; Immunosuppressive activity in vivo ([12]; murine model): reduced immunosuppressive activity
3 | C=CC[C@@H]1/C=C(\C)C[C@H](C)C[C@H](OC)[C@H]2O[C@@](O)(C(=O)C(=O)N3CCCC[C@H]3C(=O)O[C@H](/C(C)=C/[C@@H]3CC[C@@H](O)[C@H](OC)C3)[C@H](C)[C@@H](O)CC1=O)[C@H](C)C[C@@H]2OC [FK506, reference compound] | 1.09 ± 0.03 | -3.3 ± 1.2 | -12.0 ± 1.6 | -15.0 ± 1.1 | 4.6 ± 0.3 | -11.3 ± 0.4 | -6.7 ± 0.3 | 2.02 ± 0.06 | 4.7 ± 0.6 | 3 ± 0.7 nM | 1.06 ± 0.06 | 1.9 ± 0.2 | -11.7 ± 0.2 | -9.8 ± 0.1 | FK506 sensitivity of A. fumigatus strain expressing McFKBP12 ([13]; Affkbp12 locus replaced with Mcfkbp12, increasing concentrations of FK506): does not restore A. fumigatus FK506 sensitivity; FK506 sensitivity of A. fumigatus strain expressing McFKBP12-Y88F ([13]; McFKBP12-Y88F mutant): restoration of FK506 sensitivity; Toxicity in animal models ([12]; animal models): acute toxicity
